In PubChem BioAssay (NCI):
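Tested at 5 concentrations; 48 h exposure; 96-well plates; endpoints linearly interpolated, else capped at highest concentration. GI50 marks 50% less growth. TGI denotes the concentration required for complete inhibition of growth.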

What was measured:
Test in all cases: DTP human tumour cell line panel, 48 h
SK-MEL-5 melanoma = system: SK-MEL-5 melanoma
SK-MEL-28 melanoma = system: SK-MEL-28 melanoma
OVCAR-4 ovarian = system: OVCAR-4 ovarian
NCI-H226 lung = system: NCI-H226 lung
KM12 colon = system: KM12 colon
IGROV1 ovarian = system: IGROV1 ovarian
OVCAR-8 ovarian = system: OVCAR-8 ovarian
COLO 205 colon = system: COLO 205 colon
DU-145 prostate = system: DU-145 prostate
RXF 393 renal = system: RXF 393 renal

SMILES	TGI (SK-MEL-5 melanoma) [µM]	TGI (SK-MEL-28 melanoma) [µM]	TGI (OVCAR-4 ovarian) [µM]	TGI (NCI-H226 lung) [µM]	TGI (KM12 colon) [µM]	TGI (IGROV1 ovarian) [µM]	TGI (OVCAR-8 ovarian) [µM]	TGI (COLO 205 colon) [µM]	TGI (DU-145 prostate) [µM]	TGI (RXF 393 renal) [µM]	GI50 (SK-MEL-5 melanoma) [µM]	GI50 (SK-MEL-28 melanoma) [µM]	GI50 (OVCAR-4 ovarian) [µM]	GI50 (KM12 colon) [µM]	GI50 (IGROV1 ovarian) [µM]	GI50 (OVCAR-8 ovarian) [µM]	GI50 (RXF 393 renal) [µM]	GI50 (COLO 205 colon) [µM]	GI50 (DU-145 prostate) [µM]	GI50 (NCI-H226 lung) [µM]
COC(=O)NC1(NC(=O)OC)NC(=O)c2cc(OC)c(OC)c(OC)c2N1	> 100	> 100	> 100	> 100	> 100	> 100	> 100	> 100	> 100	–	–	–	–	–	–	–	–	–	–	–
CC(=O)C1C(=O)NC(=O)C1=O (centres undefined)	> 100	> 100	> 100	> 100	> 100	> 100	> 100	> 100	–	> 100	–	–	–	–	–	–	–	–	–	–
COc1cc(O)c2c(c1)C(=O)C=C(Cl)C2=O	> 100	> 100	> 100	> 100	> 100	> 100	> 100	> 100	–	> 100	–	–	–	–	–	–	–	–	–	–
O=C(CC1(O)C(=O)Nc2ccccc21)c1ccco1 (centres undefined)	> 100	> 100	> 100	> 100	–	> 100	> 100	> 100	–	> 100	–	–	–	–	–	–	–	–	–	–
O=S(=O)(SCc1ccccc1)C(c1ccccc1)c1ccccc1	51.8	> 100	> 100	54.5	> 100	> 100	43.1	36.8	–	68	–	–	–	–	–	–	–	–	–	–
S=C(Nc1ccc(Cl)cc1)Nc1ccc(-c2nc3ccccc3o2)cc1	32.2	43.2	> 100	–	42.9	37.4	49.7	> 100	38.6	30.7	14	20.6	25.1	15.8	10.9	21	10.9	19.9	17	–
Cc1ccc(NC(=O)C(=O)CC(=O)C2CCOC2=O)c(C)c1 (centres undefined)	> 100	> 100	> 100	> 100	> 100	> 100	> 100	> 100	–	> 100	–	–	–	–	–	–	–	–	–	–
CC(=O)OC1CC2Oc3ccc(C)cc3C(C)(O2)C1=O (centres undefined)	> 100	> 100	–	> 100	> 100	> 100	> 100	> 100	–	> 100	–	–	–	–	–	–	–	–	–	–
Clc1ccc(C2=Nn3c(nnc3-c3cc(Cl)cc(Cl)c3Cl)SC2)cc1	> 100	> 100	> 100	> 100	> 100	24.7	> 100	> 100	> 100	–	23.5	> 100	> 100	9.15	6.8	38.3	–	52.8	34.2	51.9
COc1ccc(C(=O)C(c2ccc(OC)cc2)C2OC(=O)C(Cl)=C2Cl)cc1 (centres undefined)	> 100	> 100	> 100	> 100	> 100	> 100	> 100	–	–	> 100	–	–	–	–	–	–	–	–	–	–
O=C(Nc1cccc(Cc2cccc(NC(=O)c3ccccc3)c2)c1)c1ccccc1	> 100	> 100	39.8	> 100	> 100	> 100	> 100	> 100	–	46.6	–	–	–	–	–	–	–	–	–	–
CC1(C)OB(O)OC1(C)C	> 100	> 100	> 100	> 100	> 100	> 100	> 100	> 100	–	> 100	–	–	–	–	–	–	–	–	–	–
Cc1ccc(C2NC(=O)c3ccccc3N2)s1 (centres undefined)	> 100	> 100	–	–	> 100	> 100	54.2	–	–	> 100	–	–	–	–	–	–	–	–	–	–
NC(=O)c1coc(C2OC(CO)C(O)C2O)n1 (centres undefined)	–	> 100	> 100	> 100	> 100	> 100	–	> 100	–	–	–	–	–	–	–	–	–	–	–	–
O=c1cc(-c2ccccc2)oc2cc(O)cc(O)c12	23.4	43.5	> 100	58.1	39.6	–	–	37.9	–	–	–	–	–	–	–	–	–	–	–	–
CN(CC#N)C1CCCC[C@H]1O (some centres undefined)	> 100	> 100	> 100	> 100	> 100	> 100	> 100	> 100	–	> 100	–	–	–	–	–	–	–	–	–	–
CN(C)CCSc1cccc(-c2cc(-c3cccc(SCCN(C)C)c3)nc(SCCN(C)C)n2)c1	2.96	3.4	3.04	–	3.44	13.8	2.78	–	–	2.8	–	–	–	–	–	–	–	–	–	–
C#CCN(N=O)C(=O)NC(CCCNC(=O)OCc1ccccc1)C(=O)OCc1ccccc1 (centres undefined)	> 100	> 100	> 100	> 100	> 100	> 100	> 100	> 100	–	84.4	–	–	–	–	–	–	–	–	–	–
COC(=O)Nc1nc2ccc(C(=O)c3ccc(N(C)C4COC4)cc3)cc2[nH]1	3.99	> 100	> 100	> 100	> 100	> 100	> 100	1.03	> 100	–	0.425	> 100	2.85	0.36	0.905	0.482	–	0.285	0.392	1.99
O=C(/C=C/C=C/c1c(C2CC2)nc2ccccc2c1-c1ccc(F)cc1)c1cccs1	2.74	> 100	14.7	3.49	8.05	> 100	> 100	–	> 100	–	1.34	3.57	1.64	1.79	1.59	3.58	–	–	2.46	1.5
O/N=C1/C(=C/c2ccc(Oc3ccccc3)cc2)CCCC1C(NO)c1ccc(Oc2ccccc2)cc1 (centres undefined)	36.7	> 100	> 100	> 100	> 100	> 100	> 100	35.8	–	52.2	–	–	–	–	–	–	–	–	–	–
